Values after ≈ are worked out from the molar mass of the structure shown. Values joined by “and” are separate entries in the source; they are usually repeats but may differ in a detail not shown here. Equal entries are not always repeated. Where two headings read alike, the source gives them in different places.
What was measured:
[1] = molecular target: 27-mer 16S A site RNA construct (AS-wt); type: binding
[2] = system: B. anthracis (Sterne strain); assay: microbe, parasite or virus in culture; type: cell-based, Bacillus anthracis
E. coli strains = assay: microbe, parasite or virus in culture; type: cell-based
E. coli XL1(pET9d) = assay: microbe, parasite or virus in culture; type: cell-based
[3] = system: Pseudomonas aeruginosa (ATCC 27853); assay: microbe, parasite or virus in culture; type: cell-based
[4] = system: Salmonella virchow (SV49); assay: microbe, parasite or virus in culture; type: cell-based
[5] = system: Staphylococcus epidermidis; assay: microbe, parasite or virus in culture; type: cell-based
Bacillus subtilis = assay: microbe, parasite or virus in culture; type: cell-based
[6] = in vivo; cited from earlier work
[7] = system: adenylyl(3′-5′)-adenosine (ApA); settings: cited from earlier work

NCC1O[C@H](OC2C(O)[C@H](OC3C(O)[C@H](N)CC(N)[C@H]3O[C@H]3OC(CN)[C@@H](O)C(O)C3N)O[C@@H]2CO[C@@H]2OC(CO)[C@@H](O)C(O)C2O)C(N)C(O)[C@@H]1O (stereo partly shown) [Compound XII]
Kd ([1]; read-out: Kd): 1.1 ± 0.2 µM
MIC ([2]; Bacillus anthracis, 18 h): 8 µg/mL (≈ 10.3 µM)

NCC1O[C@H](O[C@@H]2C(N)C[C@@H](N)C(O)[C@H]2O[C@@H]2O[C@H](CS[C@@H]3O[C@H](CO)[C@H](O)C3O)[C@H](O[C@H]3O[C@@H](CN)[C@@H](O)C(O)C3N)C2O)C(N)[C@@H](O)[C@@H]1O (stereo partly shown) [Compound XI]
Kd ([1]; read-out: Kd): 1 ± 0.2 µM
MIC ([2]; Bacillus anthracis, 18 h): 2 µg/mL (≈ 2.62 µM)
MIC (E. coli strains; Escherichia coli): 30 to 40 µg/mL (≈ 39.3 to 52.4 µM)
MIC (E. coli strains; Escherichia coli, ATCC25922): 25 to 40 µg/mL (≈ 32.8 to 52.4 µM)
MIC (E. coli XL1(pET9d); Escherichia coli): > 200 µg/mL
MIC ([3]; Pseudomonas aeruginosa, ATCC27853): 200 to 400 µg/mL (≈ 262 to 524 µM)
MIC ([4]; Salmonella enterica): > 250 µg/mL
MIC ([5]; Staphylococcus epidermidis, ATCC12228): 1.5 to 3 µg/mL (≈ 1.97 to 3.93 µM)
MIC (Bacillus subtilis; Bacillus subtilis, ATCC6633): 1 to 2.5 µg/mL (≈ 1.31 to 3.28 µM)

NC[C@H]1O[C@H](O[C@H]2[C@H](O)[C@@H](O[C@H]3O[C@H](CO)[C@@H](O)[C@H](N)[C@H]3O)[C@H](N)C[C@@H]2N)[C@H](O)[C@@H](O)[C@@H]1O [KAN]
MIC (E. coli XL1(pET9d)): 260 to 270 µg/mL
MIC [3]: 400 to 500 µg/mL
MIC [4]: 500 to 570 µg/mL

NC[C@@H]1O[C@H](O[C@H]2[C@@H](O)[C@H](O[C@@H]3[C@@H](O)[C@H](N)C[C@H](N)[C@H]3O[C@H]3O[C@H](CO)[C@@H](O)C[C@H]3N)O[C@@H]2CO)[C@H](N)[C@@H](O)[C@@H]1O[C@H]1O[C@H](CO)[C@@H](O)[C@H](O)[C@@H]1O [lividomycin]
LD50 [6]: 280 mg/kg

NC[C@@H]1O[C@H](O[C@H]2[C@@H](O)[C@H](O[C@@H]3[C@@H](O)[C@H](N)C[C@H](N)[C@H]3O[C@H]3O[C@H](CO)[C@@H](O)[C@H](O)[C@H]3N)O[C@@H]2CO)[C@H](N)[C@@H](O)[C@@H]1O [paromomycin]
LD50 [6]: 160 mg/kg

NC[C@H]1O[C@H](O[C@H]2[C@H](O[C@@H]3O[C@H](CO)[C@@H](O)[C@H]3O)[C@@H](O)[C@H](N)C[C@@H]2N)[C@H](N)[C@@H](O)[C@@H]1O [ribostamycin]
LD50 [6]: 260 mg/kg

neomycin B
Kd ([1]; read-out: binding constant Kd to 16S A site RNA): 0.3 µM
MIC [2]: 0.25 µg/mL
MIC (E. coli strains): 4 to 5.5 µg/mL and 8 to 10 µg/mL
MIC (E. coli XL1(pET9d)): 50 to 60 µg/mL
MIC [3]: 55 to 60 µg/mL
MIC [4]: 200 to 250 µg/mL
MIC [5]: 0.3 to 0.4 µg/mL
MIC (Bacillus subtilis): 0.8 to 0.9 µg/mL
first-order rate constants lower than those reported for natural ribozymes [7]: over 1000 fold
hydrolysis of ApA faster than 1,3-propanediamine [7]: 3 fold
LD50 [6]: 24 mg/kg

— patent US7635685B2 (priority 2003, dated 2009)
